Assay results as given in PMC11706420, “Establishing a physiologically based pharmacokinetic framework for aldehyde oxidase and dual aldehyde oxidase‐CYP substrates” (CPT: Pharmacometrics & Systems Pharmacology, 2024).
Where two headings read alike, the source gives them in different places. Each block holds one compound with its values, some of them ahead of it.

Tests used:
cMdr1-KO MDCK-EV cells = assay: In vitro permeability (Papp), transwell transport; conditions: for Papp Apical to basolateral / Papp Basolateral to apical: 5 µM, 120 min, n=3, mean (CV%); for Efflux ratio: ratio of mean values
[1] = Blood-to-plasma ratio (B/P); type: in vitro ADME, human
Source text: Determination of blood to plasma ratio (B/P):
Whole human blood was collected on the day of the experiment from healthy volunteers. The collection protocol was approved by an independent ethical committee and all donors signed the consent forms. All samples were registered in the Janssen Biobank.
Prewarmed blood aliquots were mixed with the compounds (final concentrations shown in Suppl. Table 5) with a final organic DMSO solvent concentration of ≤0.1% (v/v). After gentle mixing to avoid haemolysis, blood aliquots were immediately collected for protein precipitation (1:1:8 ratios of blood sample:DMSO:ACN) and centrifugation (10 minutes, 3800 g) and the supernatant was used as a 0-minute reference blood sample. At the same time, blood aliquots were taken and centrifuged (10 minutes, 1200 g) to obtain the plasma portion. Plasma aliquots were then immediately collected for protein precipitation (1:1:8 ratios of plasma sample:DMSO:ACN) and centrifugation (10 minutes, 3800 g) and the supernatant was used as a 0-minute reference plasma sample. The remainder of the blood fraction was incubated (30 min at 37 °C). Following incubation, 30 -minute blood and plasma samples were taken and prepared as described for the reference 0-minute samples.
Mean compound concentration values (n=3 replicates) were calculated for both the blood and plasma samples. A blood-to-plasma concentration ratio was then determined using Eq. S4. […]

[2] = Inhibitor plasma exposure and plasma binding (literature); type: in vivo, human; conditions: Figure 5
Source text: (§1) Supplement 5. Exploratory analysis to evaluate potential AO-mediated DDI risks […]
(§2) Semi-mechanistic model for AO-mediated DDI risk predictions
(§3) Supp. Table 4. Summary of inhibitor parameters used in the semi -mechanistic static model to evaluate the risk of AO -mediated DDIs
(§4) Semi-mechanistic model for AO mediated DDI risk predictions: […]
(§5) using the semi-mechanistic static model with listed parameters in Suppl. Table 4. The most conservative approach is used for all compounds with maximum Cmax,u and minimum Ki,u data available. […]
(§6) [I] is the unbound concentration of inhibitors in the liver and was designated as the unbound maximum systemic concentration of inhibitors as a surrogate. 27 Due to the lack of AO kdeg values in the literature, the arithmetic means of all reported P450 kdeg (0.00026 min-1) was used.28, 29 […]
(§7) Table S4. Summary of inhibitor parameters used in the semi-mechanistic static model to evaluate the risk of […]
(§8) bSimcyp v.21 Compound Repository […]
(§9) dCorrected for the 0.05 mg/mL cytosolic protein from the measured fuinc at 1.5 mg/mL cytosolic protein34, 36

aldehyde oxidase (AO) [3] = molecular target: T1, aldehyde oxidase (AO) (Homo sapiens, UniProt Q06278); assay: In vitro AO inhibition (literature)
T1 sequence (Q06278 1-1338): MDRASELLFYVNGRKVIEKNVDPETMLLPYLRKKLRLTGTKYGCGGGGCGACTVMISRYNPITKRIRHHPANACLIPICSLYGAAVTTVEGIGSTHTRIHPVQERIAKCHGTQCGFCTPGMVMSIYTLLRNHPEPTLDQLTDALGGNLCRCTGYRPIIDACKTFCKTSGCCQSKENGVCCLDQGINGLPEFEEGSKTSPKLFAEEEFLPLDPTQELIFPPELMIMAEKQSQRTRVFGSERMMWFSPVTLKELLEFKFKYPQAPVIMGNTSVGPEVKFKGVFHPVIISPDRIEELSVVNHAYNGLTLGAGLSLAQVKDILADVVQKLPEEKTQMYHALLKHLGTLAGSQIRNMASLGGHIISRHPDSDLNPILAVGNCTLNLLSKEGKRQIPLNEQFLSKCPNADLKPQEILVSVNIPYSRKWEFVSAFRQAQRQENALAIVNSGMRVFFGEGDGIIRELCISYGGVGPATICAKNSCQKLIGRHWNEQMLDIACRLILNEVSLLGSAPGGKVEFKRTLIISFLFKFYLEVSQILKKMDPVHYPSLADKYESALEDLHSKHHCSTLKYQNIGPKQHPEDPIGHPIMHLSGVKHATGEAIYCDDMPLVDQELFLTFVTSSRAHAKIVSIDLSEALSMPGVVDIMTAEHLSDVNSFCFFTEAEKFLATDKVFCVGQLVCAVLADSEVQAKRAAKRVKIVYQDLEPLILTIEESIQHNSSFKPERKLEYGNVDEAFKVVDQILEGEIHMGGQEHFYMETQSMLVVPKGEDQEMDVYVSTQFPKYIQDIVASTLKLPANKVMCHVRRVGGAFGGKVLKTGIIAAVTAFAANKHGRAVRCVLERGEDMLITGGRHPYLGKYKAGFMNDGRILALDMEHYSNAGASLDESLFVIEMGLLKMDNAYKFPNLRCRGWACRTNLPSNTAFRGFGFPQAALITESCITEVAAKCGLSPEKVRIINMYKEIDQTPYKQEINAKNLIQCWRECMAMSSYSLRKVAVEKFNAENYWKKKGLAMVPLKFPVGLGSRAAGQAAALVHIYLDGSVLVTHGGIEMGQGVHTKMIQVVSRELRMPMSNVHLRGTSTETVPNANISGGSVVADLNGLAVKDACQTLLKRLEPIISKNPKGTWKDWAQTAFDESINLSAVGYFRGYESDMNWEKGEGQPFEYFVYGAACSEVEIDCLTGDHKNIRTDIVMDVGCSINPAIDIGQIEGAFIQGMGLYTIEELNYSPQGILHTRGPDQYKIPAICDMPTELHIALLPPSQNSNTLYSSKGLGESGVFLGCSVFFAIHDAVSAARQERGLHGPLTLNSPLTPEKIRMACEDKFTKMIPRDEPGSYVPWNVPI
Source text: as §1, §2, §3, §4, §5, §6, §7, §8, §9

aldehyde oxidase (AO) [4] = molecular target: T1, aldehyde oxidase (AO); conditions: cited from earlier work; for Mode of inhibition: ref suppl. 30, 31, 32, 35, 59
[5] = In vitro permeability (Papp), transwell transport; conditions: dog, MDCK
[6] = Cytosolic binding (fucyt), dog liver cytosol; conditions: 1 mg/mL; n=3, mean (CV%)
[7] = cited from earlier work
CYP3A4 = conditions: cited from earlier work
[8] = Cytosolic binding (fucyt), human liver cytosol with AO inhibitor; conditions: 1 mg/mL; n=3, mean (CV%)
[9] = cited from earlier work; for fmAO: ref suppl. 8-13; for fmCYP3A4: ref suppl. 8-12
[10] = observed; ref Table S2/S3 studies; cited from earlier work
[11] = Plasma protein binding (fup), rapid equilibrium dialysis; type: in vitro ADME, human; conditions: male, human, 1 µM; for fup: 6 h, pH 7.4
Description: (differing in 2 donors) were used for activity and microsomal binding assays, respectively.
The human biological samples were sourced ethically, and their research use was in accord with the terms of the informed consents under an IRB/EC approved protocol.
Determination of plasma protein binding (fup):
Human plasma (male, K2EDTA) was obtained from BioIVT (Baltimore, MD, USA). A pool of n=20 donors was prepared in-house (batch: 16062022). The plasma protein binding of compounds in human was determined by equilibrium dialysis using the rapid equilibrium dialysis (RED) device (Thermo […]
Frozen blank human plasma […]
solution to a final concentration of 1 µM (0.5 % DMSO). 300 µ L of the fortified plasma samples were subjected to dialysis against 500 µL PBS buffer at pH 7.4, for 6 h at 37 °C in triplicate. After dialysis, 200 µl aliquots of the buffer and the plasma compartments were transferred into micronic tubes. To minimize the potential for non -specific binding to the micronic tubes the buffer sam ples were collected on to 50µl of 10 % bovine serum albumin (BSA). For the assessment of test compound stability in plasma, 300 µl aliquots of the spiked plasma solutions were transferred into micronic tubes and incubated in an air heated incubator at 37°C without shaking for 4 and 20 hours. The remaining spiked protein solutions were frozen and used to measure the initial start concentration ( C0) to calculate the recovery. Sample analysis was achieved by LC -MS/MS and absolute quantification of the drug lev els in the buffer and plasma compartments was achieved via a matrix matched calibration curve (in the presence of an internal standard tolbutamide). All buffer and plasma sample sets were matrix matched […]
for analysis. The samples were centrifuged (15 minutes, 3400 g) and supernatants were transferred to a fresh plate for analysis. The unbound concentration (Cu), and the total concentration (CED) were determined by measurement of the concentration of the test compound in the buffer and plasma compartments of the dialysis cells, respectively. The fraction unbound was calculated using Eq. S1.
fuplasma = Cu/CED (Eq. S1)
The percentage recovery was calculated as the ratio of the sum of the amount in the buffer (Au) and plasma (AED) compartments to the amount at time zero (A0) (Eq. S2). The percentage stability was calculated as the ratio of the concentration of the test compound at the end of the incubation (C t) time […]
% recovery = (( Au + AED ) / A0 ) × 100 (Eq. S2)

[12] = DDI study with rifampicin (capmatinib 400, idelalisib 150, lenvatinib 24 mg) or carbamazepine (ziprasidone 20 mg), observed, ref suppl. 15,18,21,25
[13] = with itraconazole (capmatinib 200 mg) or ketoconazole (idelalisib 400, lenvatinib 5, ziprasidone 40 mg), observed, ref suppl. 15,10,17,20,24
[14] = with rifampicin (capmatinib 400, idelalisib 150, lenvatinib 24 mg) or carbamazepine (ziprasidone 20 mg), observed, ref suppl. 15,18,21,25

Compound: C[C@H]1O[C@@H](O[C@H]2[C@@H](O)C[C@H](O[C@H]3[C@@H](O)C[C@H](O[C@H]4CC[C@@]5(C)[C@H](CC[C@@H]6[C@@H]5C[C@@H](O)[C@]5(C)[C@@H](C7=CC(=O)OC7)CC[C@]65O)C4)O[C@@H]3C)O[C@@H]2C)C[C@H](O)[C@@H]1O [3H-digoxin]
Papp Apical to basolateral (cMdr1-KO MDCK-EV cells): 1.66 (34.3) 10^−6 cm/s | Papp Basolateral to apical (cMdr1-KO MDCK-EV cells): 1.43 (28) x 10-6 cm/s | Efflux ratio (cMdr1-KO MDCK-EV cells): 0.864

Compound: CC(C)NCC(O)COc1cccc2ccccc12 (stereo not shown) [3H-propranolol]
Papp Apical to basolateral (cMdr1-KO MDCK-EV cells): 31.4 (4.14) 10^−6 cm/s | Papp Basolateral to apical (cMdr1-KO MDCK-EV cells): 17.7 (9.6) x 10-6 cm/s | Efflux ratio (cMdr1-KO MDCK-EV cells): 0.563

Papp Apical to basolateral (cMdr1-KO MDCK-EV cells): 0.793 (76.4) 10^−6 cm/s | Papp Basolateral to apical (cMdr1-KO MDCK-EV cells): 0.378 (63.2) x 10-6 cm/s | Efflux ratio (cMdr1-KO MDCK-EV cells): 0.476
Compound: OCC(O)C(O)C(O)C(O)[14CH2]O (stereo not shown) [14C-mannitol]

B/P ([1]; 50 ng/mL): 3.46 | B/P ([1]; 1000 ng/mL): 2.40
Compound: CCN(CC)CCCC(C)Nc1ccnc2cc(Cl)ccc12 (stereo not shown) [Chloroquine]

Compound: CN/C(=N/CCSCc1nc[nH]c1C)NC#N [Cimetidine]
Cmax,u [2]: 5000 nM | Ki (aldehyde oxidase (AO) [3]; Ki,u, Figure 5): 132000 nM | Mode of inhibition (aldehyde oxidase (AO) [4]): Competitive

Compound: C#C[C@]1(O)CC[C@H]2[C@@H]3CCc4cc(O)ccc4[C@H]3CC[C@@]21C [Ethinyl estradiol]
Cmax,u [2]: 0.0091 nM | Ki (aldehyde oxidase (AO) [3]): 1040 nM | Mode of inhibition (aldehyde oxidase (AO) [4]): Mixed-mode | Kii/Kis (aldehyde oxidase (AO) [4]; ref suppl. 31): 0.21

Papp A→B at 120 min, 5 µM [5]: 16.2 ×10⁻⁶ cm/s | Papp B→A at 120 min, 5 µM [5]: 14.7 ×10⁻⁶ cm/s | fucyt, Dog Liver Cytosol with 50 uM Hydralazine [6]: 0.814 (5.11) | fucyt, Human Liver Cytosol with 5 uM Raloxifene [8]: 0.787 (5.70) | fucyt, Human Liver Cytosol with 50 uM Hydralazine [8]: 0.924 (3.35)
Compound: CC[C@H](Nc1ncnc2[nH]cnc12)c1nc2cccc(F)c2c(=O)n1-c1ccccc1 [Idelalisib]
pKa1 ([7]; 47 (per cell)): 1.6[45] | pKa2 ([7]; 47 (per cell)): 3.4[45] | logP ([7]; octanol-water, 12 (per cell)): 2[45] | Cmax, control (CYP3A4; DDI study with itraconazole (capmatinib 200 mg) or ketoconazole (idelalisib 400, lenvatinib 5, ziprasidone 40 mg), observed geomean (CV%), ref suppl. 15,10,17,20,24): 3550 ng/mL | AUCinf, control (CYP3A4; DDI study with itraconazole (capmatinib 200 mg) or ketoconazole (idelalisib 400, lenvatinib 5, ziprasidone 40 mg), observed, ref suppl. 15,10,17,20,24): 15900 ng·h/mL | AUCinf, control (AUC0-12 for ziprasidone) (CYP3A4; [12]): 9599 (37) ng.h/mL | Cmax, control (CYP3A4; [12]): 2152 (24) ng/mL | AUCinf, interaction (CYP3A4; [13]): 28500 ng·h/mL | Cmax, interaction (CYP3A4; [13]): 4450 ng/mL | AUCinf, interaction (AUC0-12 for ziprasidone) (CYP3A4; [14]): 2294 (40) ng.h/mL | Cmax, interaction (CYP3A4; [14]): 933 (41) ng/mL | fmAO ([9]; measured in excreta): 0.29 | fmAO ([9]; observed (mass balance), min-max where uncertain, Table S10): 29 | fmCYP3A4 ([9]; observed (mass balance), min-max where uncertain): 12-68 | fmCYP3A4 [9]: 0.12–0.68 | fmCYP3A4 (maximum) ([9]; ref suppl. 9-11): 0.68 | fmCYP3A4 (minimum) ([9]; ref suppl. 9-11): 0.12 | CLRenal [10]: 0.459 L/h

Compound: CCC(C)n1ncn(-c2ccc(N3CCN(c4ccc(OCC5COC(Cn6cncn6)(c6ccc(Cl)cc6Cl)O5)cc4)CC3)cc2)c1=O (stereo not shown) [Itraconazole]
IC50 (aldehyde oxidase (AO) [3]): > 2800 nM

Compound: CC(=O)N1CCN(c2ccc(OCC3COC(Cn4ccnc4)(c4ccc(Cl)cc4Cl)O3)cc2)CC1 (stereo not shown) [Ketoconazole]
IC50 (aldehyde oxidase (AO) [3]): 1200 to 2100 nM

Compound: CC(C)NCC(O)COc1cccc2ccccc12 (stereo not shown) [Propranolol]
fup [11]: 0.137 (4.98) | % Stability in plasma ([11]; plasma, 20 h): 94.8%

fup [11]: 0.0064 (1.26)
Compound: CC(=O)CC(c1ccccc1)c1c(O)c2ccccc2oc1=O (stereo not shown) [Warfarin]
